What was measured:
Assay type in all cases: in vivo
[1] = system: pigweed (Amaranthus retroflexus); experiment: Test C pre-/postemergence: pigweed
Procedure, shortened: (§1)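 Visual injury scored 0–100 (100 = complete control) against untreated controls after 13–15 greenhouse days. Surfactant-containing solvent formulations applied either to soil after sowing (loam/sand) or over 1- to 4-leaf plants, 2–18 cm tall.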

soybean (Glycine max) = experiment: Test C pre-/postemergence: soybean
Procedure, shortened: as §1

[2] = system: foxtail, giant (giant foxtail, Setaria faberii); experiment: Test C pre-/postemergence: foxtail, giant
Procedure, shortened: as §1

[3] = system: blackgrass (Alopecurus myosuroides); experiment: Test C pre-/postemergence: blackgrass
Procedure, shortened: as §1

rice (Oryza sativa) = experiment: Test B flooded paddy: rice; conditions: Flood; 125 g ai/ha; applied to paddy water at 2-leaf stage; visually evaluated after 13 to 15 days
Procedure, shortened: (§2)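 Greenhouse assay lasting 13 to 15 days. Treatment was into water flooding pots 3 cm deep, at the 2-leaf stage, with that level sustained afterwards. Scores compare treated with control plants visually, 100 denoting complete control and 0 no effect; a dash marks no test result.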

[4] = system: johnsongrass (Sorghum halepense); experiment: Test C pre-/postemergence: johnsongrass
Procedure, shortened: as §1

kochia (Kochia scoparia) = experiment: Test C pre-/postemergence: kochia; conditions: Postemergence
Procedure, shortened: as §1

[5] = system: velvetleaf (Abutilon theophrasti); experiment: Test C pre-/postemergence: velvetleaf
Procedure, shortened: as §1

corn (Zea mays) = experiment: Test C pre-/postemergence: corn
Procedure, shortened: as §1

[6] = system: winter wheat (Triticum aestivum); experiment: Test C pre-/postemergence: winter wheat
Procedure, shortened: as §1

[7] = system: barnyardgrass (Echinochloa crus-galli); experiment: Test B flooded paddy: barnyardgrass; conditions: Flood; 125 g ai/ha; applied to paddy water at 2-leaf stage; visually evaluated after 13 to 15 days
Procedure, shortened: as §2

[8] = Postemergence, 31 g ai/ha, scale 0 to 100 (0 no effect, 100 complete control)
[9] = Postemergence, 62 g ai/ha, scale 0 to 100 (0 no effect, 100 complete control)
[10] = Postemergence, 125 g ai/ha, scale 0 to 100, 0 no effect, 100 complete control
[11] = Postemergence, 250 g ai/ha, scale 0 to 100
[12] = Preemergence, 31 g ai/ha, scale 0 (no effect) to 100 (complete control)
[13] = Preemergence, 62 g ai/ha, scale of 0 to 100, 0 is no effect, 100 is complete control
[14] = Preemergence, 125 g ai/ha, scale 0 to 100, 0 no effect, 100 complete control
[15] = Preemergence, 250 g ai/ha, scale 0 to 100, 0 no effect, 100 complete control

## CCOc1nn(-c2ccc(C(F)(F)F)cc2)nc1Cc1ccnc(C(F)(F)F)c1 [Compound 164, 4-[[5-ethoxy-2-[4-(trifluoromethyl)phenyl]-2H-1,2,3-triazol-4-yl]methyl]-2-(trifluoromethyl)pyridine]
[1]; [8]
  Plant response rating, Pigweed: 50
[1]; [9]
  Plant response rating, Pigweed: 75
[1]; [10]
  Plant response rating, Pigweed: 80
[1]; [11]
  Plant response rating, Pigweed: 80
[1]; [12]
  Plant response rating, Pigweed: 10
[1]; [13]
  Plant response rating, Pigweed: 35
[1]; [14]
  Plant response rating, Pigweed: 90
[1]; [15]
  Plant response rating, Pigweed: 100
Soybean (Glycine max); [8]
  Plant response rating, Soybean: 30
Soybean (Glycine max); [9]
  Plant response rating, Soybean: 40
Soybean (Glycine max); [11]
  Plant response rating, Soybean: 50
Soybean (Glycine max); [12]
  Plant response rating, Soybean: 0
Soybean (Glycine max); [13]
  Plant response rating, Soybean: 0
Soybean (Glycine max); [14]
  Plant response rating, Soybean: 5
Soybean (Glycine max); [15]
  Plant response rating, Soybean: 5
[2]; [8]
  Plant response rating, Foxtail, Giant: 10
[2]; [9]
  Plant response rating, Foxtail, Giant: 20
[2]; [10]
  Plant response rating, Foxtail, Giant: 20
[2]; [11]
  Plant response rating, Foxtail, Giant: 35
[2]; [12]
  Plant response rating, Foxtail, Giant: 50
[2]; [13]
  Plant response rating, Foxtail, Giant: 65
[2]; [14]
  Plant response rating, Foxtail, Giant: 98
[2]; [15]
  Plant response rating, Foxtail, Giant: 100
[3]; [8]
  Plant response rating, Blackgrass: 5
[3]; [9]
  Plant response rating, Blackgrass: 5
[3]; [10]
  Plant response rating, Blackgrass: 15
[3]; [11]
  Plant response rating, Blackgrass: 15
[3]; [12]
  Plant response rating, Blackgrass: 5
[3]; [13]
  Plant response rating, Blackgrass: 10
[3]; [14]
  Plant response rating, Blackgrass: 60
[3]; [15]
  Plant response rating, Blackgrass: 70
Rice (Oryza sativa)
  Plant response rating, Rice (0 to 100 scale, 0 is no effect, 100 is complete control): 45
[4]; [8]
  Plant response rating, Johnsongrass: 10
[4]; [9]
  Plant response rating, Johnsongrass: 10
[4]; [10]
  Plant response rating, Johnsongrass: 10
[4]; [11]
  Plant response rating, Johnsongrass: 10
[4]; [12]
  Plant response rating, Johnsongrass: 5
[4]; [13]
  Plant response rating, Johnsongrass: 15
[4]; [14]
  Plant response rating, Johnsongrass: 20
[4]; [15]
  Plant response rating, Johnsongrass: 40
Kochia (Kochia scoparia); 31 g ai/ha, scale 0 to 100 (0 no effect, 100 complete control)
  Plant response rating, Kochia: 40
Kochia (Kochia scoparia); 62 g ai/ha, scale 0 to 100 (0 no effect, 100 complete control)
  Plant response rating, Kochia: 40
Kochia (Kochia scoparia); 125 g ai/ha, scale 0 to 100, 0 no effect, 100 complete control
  Plant response rating, Kochia: 40
Kochia (Kochia scoparia); 250 g ai/ha, scale 0 to 100
  Plant response rating, Kochia: 90
[5]; [8]
  Plant response rating, Velvetleaf: 25
[5]; [9]
  Plant response rating, Velvetleaf: 30
[5]; [10]
  Plant response rating, Velvetleaf: 40
[5]; [11]
  Plant response rating, Velvetleaf: 40
[5]; [12]
  Plant response rating, Velvetleaf: 10
[5]; [13]
  Plant response rating, Velvetleaf: 10
[5]; [14]
  Plant response rating, Velvetleaf: 30
[5]; [15]
  Plant response rating, Velvetleaf: 70
Corn (Zea mays); [8]
  Plant response rating, Corn: 15
Corn (Zea mays); [9]
  Plant response rating, Corn: 15
Corn (Zea mays); [10]
  Plant response rating, Corn: 20
Corn (Zea mays); [11]
  Plant response rating, Corn: 20
Corn (Zea mays); [12]
  Plant response rating, Corn: 0
Corn (Zea mays); [13]
  Plant response rating, Corn: 5
Corn (Zea mays); [14]
  Plant response rating, Corn: 10
Corn (Zea mays); [15]
  Plant response rating, Corn: 10
[6]; [8]
  Plant response rating, Wheat: 5
[6]; [9]
  Plant response rating, Wheat: 10
[6]; [10]
  Plant response rating, Wheat: 10
[6]; [11]
  Plant response rating, Wheat: 10
[6]; [12]
  Plant response rating, Wheat: 0
[6]; [13]
  Plant response rating, Wheat: 0
[6]; [14]
  Plant response rating, Wheat: 0
[6]; [15]
  Plant response rating, Wheat: 5
[7]
  Plant response rating, Barnyardgrass (0 to 100 scale, 0 is no effect, 100 is complete control): 60

— patent US9302999B2, “Substituted triazoles as herbicides” (E. I. DU PONT DE NEMOURS AND COMPANY, priority 2012, dated 2016)
